According to patent publication US10611740B2, “Aryl dihydro-2H-benzo[b][1,4]oxazine sulfonamide and related compounds for use as agonists of RORγ and the treatment of disease” (Lycera Corporation, priority 2015, dated 2020):

Target: T1, RORγ-LBD (Homo sapiens, UniProt P51449)
T1 construct: made in house; host or cells: SF9 cells (baculovirus)
T1 sequence (P51449 269-508 limits assumed): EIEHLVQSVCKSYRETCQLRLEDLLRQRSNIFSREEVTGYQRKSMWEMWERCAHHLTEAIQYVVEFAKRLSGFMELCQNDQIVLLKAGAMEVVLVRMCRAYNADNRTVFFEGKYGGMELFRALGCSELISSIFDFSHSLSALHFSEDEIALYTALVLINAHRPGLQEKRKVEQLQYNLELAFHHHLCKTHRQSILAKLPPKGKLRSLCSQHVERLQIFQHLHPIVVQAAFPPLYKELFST
Assay: RORγ-Ligand Binding Domain (LBD) TR-FRET Assay;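 for TR-FRET Assay Max Response: 665/615 nm ratio relative to signal without ursolic acid or compound set at 100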
Format: biochemical
Conditions: not given
Outline: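 TR-FRET read-out using a biotin-tagged SRC1 coactivator LXXLL peptide (200 nM final), with the antagonist ursolic acid present at 2 μM final. Receptor is His-tagged LBD expressed in SF9 cells, ~3 nM final in pH 7.0 Tris/KCl/EDTA/DTT/BSA buffer; compounds in 1% DMSO final.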

SMILES	EC50 [nM]	TR-FRET Assay Max Response
O=C(O)[C@H]1C[C@@H]([C@H]2CN(S(=O)(=O)c3cccc(C(F)(F)F)c3)c3cc(-c4cccc(C(F)(F)F)n4)ccc3O2)C1 [Compound 71, (1R,3s)-3-((S)-4-((3-(trifluoromethyl)phenyl)sulfonyl)-6-(6-(trifluoromethyl)pyridin-2-yl)-3,4-dihydro-2H-benzo[b][1,4]oxazin-2-yl)cyclobutane-1-carboxylic acid]	< 500	*** (The symbol “***” indicates a value in the range of greater than 150 to 200)
O=C(O)[C@H]1C[C@H]([C@H]2CN(S(=O)(=O)c3cccc(C(F)(F)F)c3)c3cc(-c4cccc(C(F)(F)F)n4)ccc3O2)C1 [Compound 72, (1S,3r)-3-((S)-4-((3-(trifluoromethyl)phenyl)sulfonyl)-6-(6-(trifluoromethyl)pyridin-2-yl)-3,4-dihydro-2H-benzo[b][1,4]oxazin-2-yl)cyclobutane-1-carboxylic acid]	< 500	** (The symbol “**” indicates a value in the range of greater than 90 to 150)
CC(=O)NC1(C[C@H]2CN(S(=O)(=O)c3cccc(C(F)(F)F)c3)c3cc(-c4cc(F)cc(OC(F)F)c4)ccc3O2)CCOCC1 [Compound 78I, (S)-N-(4-((6-(3-(difluoro-methoxy)-5-fluorophenyl)-4-((3-(trifluoromethyl)phenyl)sulfonyl)-3,4-dihydro-2H-benzo[b][1,4]-oxazin-2-yl)methyl)tetrahydro-2H-pyran-4-yl)acetamide]	< 500	*** (The symbol “***” indicates a value in the range of greater than 150 to 200)
C[C@@H](CC(=O)O)[C@H]1CN(S(=O)(=O)c2cccc(C(F)(F)F)c2)c2cc(-c3cc(F)cc(OC(F)F)c3)ccc2O1 [Compound 80A, (S)-3-((S)-6-(3-(difluoro-methoxy)-5-fluorophenyl)-4-((3-(trifluoromethyl)phenyl)sulfonyl)-3,4-dihydro-2H-benzo[b][1,4]-oxazin-2-yl)butanoic acid]	< 500	*** (The symbol “***” indicates a value in the range of greater than 150 to 200)

The next lines start with results.

EC50 [nM]	SMILES	TR-FRET Assay Max Response
< 500	O=C1CC[C@@](C[C@H]2CN(S(=O)(=O)c3cccc(C(F)(F)F)c3)c3cc(-c4cc(F)cc(OC(F)F)c4)ccc3O2)(C(=O)O)N1 [Compound 77C, (R)-2-(((S)-6-(3-(difluoro-methoxy)-5-fluorophenyl)-4-((3-(trifluoromethyl)phenyl)sulfonyl)-3,4-dihydro-2H-benzo[b][1,4]-oxazin-2-yl)methyl)-5-oxopyrrolidine-2-carboxylic acid]	** (The symbol “**” indicates a value in the range of greater than 90 to 150)
< 500	O=C1CC[C@](C[C@H]2CN(S(=O)(=O)c3cccc(C(F)(F)F)c3)c3cc(-c4cc(F)cc(OC(F)F)c4)ccc3O2)(C(=O)O)N1 [Compound 77D, (S)-2-(((S)-6-(3-(difluoro-methoxy)-5-fluorophenyl)-4-((3-(trifluoromethyl)phenyl)sulfonyl)-3,4-dihydro-2H-benzo[b][1,4]-oxazin-2-yl)methyl)-5-oxopyrrolidine-2-carboxylic acid]	** (The symbol “**” indicates a value in the range of greater than 90 to 150)
< 500	CC(=O)NC1(C[C@H]2CN(S(=O)(=O)c3cccc(C(F)(F)F)c3)c3cc(-c4cc(F)ccc4F)ccc3O2)CCOCC1 [Compound 78J, (S)-N-(4-((6-(2,5-difluorophenyl)-4-((3-(trifluoromethyl)phenyl)-sulfonyl)-3,4-dihydro-2H-benzo[b][1,4]oxazin-2-yl)methyl)tetrahydro-2H-pyran-4 yl)acetamide]	*** (The symbol “***” indicates a value in the range of greater than 150 to 200)

Target: T2, Gal4-RORγ-LBD (Homo sapiens, UniProt P51449)
T2 construct: expressed in transfected cells; host or cells: HEK-293 cells (pcDNA3.1neo plasmid)
T2 sequence (P51449 269-508 limits assumed): T1 sequence (P51449 269-508 limits assumed)
Assay: Gal4-RORγ Luciferase Reporter Assay in HEK-293T Cells
Format: cell-based
Conditions: HEK-293 cells, 2 μM ursolic acid
Protocol: Assay procedures and results are described below.
In the following protocol, HEK-293 cells were transfected with a construct comprising the Gal4 DNA binding domain fused to the ligand binding domain of RORγ (Gal4-RORγ-LBD) in a pcDNA3.1neo plasmid, and also with a reporter construct comprising pGL4.31 Gal4-luciferase (Promega). Control cells were prepared similarly using empty pcDNA3.1neo and pGL4.31 vectors.
Trans-IT reagent (Mirus, 60 μL) at room temperature was added drop wise to OptiMEM (Invitrogen, 1.5 ml). This reagent mixture was mixed by inversion then incubated for 5 to 30 minutes at room temperature. It then was added to a solution of both expression vectors (5 μg each), mixed, and incubated at room temperature for about 20 minutes. HEK-293 cells were harvested from incubation flasks by removing the media, treating with TrypLE Express (Invitrogen), and incubating until the cells detached from the bottom of the flask (approximately 2-5 minutes). 10 Million cells were collected by centrifugation and re-suspended in 10 mL of Dulbecco's Modified Eagle Medium, High Glucose (DMEM, Invitrogen) containing 10% Fetal Bovine Serum and 100 IU each of penicillin and streptomycin. The re-suspended cells and the transfection mixture were added to a T75 flask, mixed and incubated overnight at 37° C. and 5% CO2.
The cells were harvested as described above, counted, and centrifuged to obtain the desired number of cells, then re-suspended in complete growth media at 0.75×10^6 cells/mL. The RORγ antagonist, ursolic acid, was added to the cells at a final concentration of 2 μM. Cells were plated at 20 μL of cell suspension/well (10,000-15,000 cells/well) in white tissue culture treated 384 well plates. Test compounds were dissolved at 10 mM in DMSO then diluted into complete growth medium to 5× the final intended test concentration. These drug stock solutions, 5 μL/well were added to the tissue culture plate. The final DMSO concentration was 0.2%. The plates were briefly centrifuged then incubated overnight at 37° C. and 5% CO2. To conduct the assay, the tissue culture plates were allowed to equilibrate to room temperature and One-Glo luciferase reagent (Promega, 25 μL/well) was added. The plates were briefly centrifuged then incubated at room temperature for 10 minutes. The luciferase intensity was read on an Envision plate reader (Perkin Elmer). […] The luciferase signal in the absence of ursolic acid or test compound is defined at 100. The Max Response is the upper plateau in the signal as determined by line-fit using a 4-parameter logistic model in PRISM (GraphPad).

SMILES	EC50 [nM]	Gal4-RORγ Assay Max Response
O=C(O)CC[C@H]1CN(S(=O)(=O)c2cccc(C(F)(F)F)c2)c2cc(-c3cc(F)cc(F)c3)c(Cl)cc2O1 [Compound 22L, (S)-3-(7-chloro-6-(3,5-difluoro-phenyl)-4-((3-(trifluoromethyl)-phenyl)sulfonyl)-3,4-dihydro-2H-benzo[b][1,4]oxazin-2-yl)propanoic acid]	< 500	** (The symbol “**” indicates a value in the range of greater than 90 to 150)
COc1cc(S(=O)(=O)N2C[C@H](CNS(=O)(=O)N3CCCC3)Oc3ccc(-c4cc(F)ccc4F)cc32)ccc1F [Compound 45F, (S)-N-((6-(2,5-difluorophenyl)-4-((4-fluoro-3-methoxyphenyl)sulfonyl)-3,4-dihydro-2H-benzo[b][1,4]oxazin-2-yl)methyl)pyrrolidine-1-sulfonamide]	< 500	–

Second part, led by results:

EC50 [nM]	SMILES	Gal4-RORγ Assay Max Response
< 500	O=C(O)C1(C[C@H]2CN(S(=O)(=O)c3cc(F)cc(C(F)(F)F)c3)c3cc(-c4cc(F)ccc4F)ccc3O2)COC1 [Compound 51G, (S)-3-((6-(2,5-difluorophenyl)-4-((3-fluoro-5-(trifluoromethyl)-phenyl)sulfonyl)-3,4-dihydro-2H-benzo[b][1,4]oxazin-2-yl)methyl)oxetane-3-carboxylic acid]	** (The symbol “**” indicates a value in the range of greater than 90 to 150)
500 to 5000	O=C(O)C1(C[C@H]2CN(S(=O)(=O)c3cccc(C(F)F)c3)c3cc(-c4cc(F)ccc4F)ccc3O2)COC1 [Compound 51H, (S)-3-((4-((3-(difluoromethyl)-phenyl)sulfonyl)-6-(2,5-difluorophenyl)-3,4-dihydro-2H-benzo[b][1,4]oxazin-2-yl)methyl)oxetane-3-carboxylic acid]	** (The symbol “**” indicates a value in the range of greater than 90 to 150)
< 500	O=C(O)C1(C[C@H]2CN(S(=O)(=O)c3cc(F)cc(C(F)(F)F)c3)c3cc(-c4cc(F)cc(OC(F)F)c4)ccc3O2)COC1 [Compound 51I, (S)-3-((6-(3-(difluoromethoxy)-5-fluorophenyl)-4-((3-fluoro-5-(trifluoromethyl)phenyl)sulfonyl)-3,4-dihydro-2H-benzo[b][1,4]-oxazin-2-yl)methyl)oxetane-3-carboxylic acid]	* (The symbol “*” indicates a value in the range of 25 to 90)

Same assay, conditions: HEK-293 cells, luciferase reporter, with 2 μM ursolic acid

EC50 [nM]	SMILES	Gal4-RORγ Assay Max Response
500 to 5000	COc1ccnc(-c2ccc3c(c2)N(S(=O)(=O)c2cccc(C(F)(F)F)c2)C[C@H](CCC(=O)O)O3)n1 [Compound 4C, (S)-3-(6-(4-methoxypyrimidin-2-yl)-4-((3-(trifluoromethyl)-phenyl)sulfonyl)-3,4-dihydro-2H-benzo[b][1,4]oxazin-2-yl)propanoic acid]	** (The symbol “**” indicates a value in the range of greater than 90 to 150)
< 500	COc1cc(S(=O)(=O)N2C[C@H](CNC(=O)C(C)(C)O)Oc3ccc(-c4cccc(C(F)(F)F)n4)cc32)ccc1F [Compound 30T, (S)-N-((4-((4-fluoro-3-methoxyphenyl)sulfonyl)-6-(6-(trifluoromethyl)pyridin-2-yl)-3,4-dihydro-2H-benzo[b][1,4]oxazin-2-yl)methyl)-2-hydroxy-2-methylpropanamide]	* (The symbol “*” indicates a value in the range of 25 to 90)
500 to 5000	CC(C)c1cccc(S(=O)(=O)N2C[C@H](CC(C)(C)C(=O)O)Oc3ccc(-c4cc(F)ccc4F)cc32)c1 [Compound 32M, (S)-3-(6-(2,5-difluorophenyl)-4-((3-isopropylphenyl)sulfonyl)-3,4-dihydro-2H-benzo[b][1,4]oxazin-2-yl)-2,2-dimethylpropanoic acid]	** (The symbol “**” indicates a value in the range of greater than 90 to 150)
